Source: PubChem BioAssay (NCI)
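48-hour exposure; five concentrations; linearly interpolated endpoints. At the GI50, growth is halved. TGI marks complete inhibition of growth.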

Legend:
Test in all cases: growth of human tumour cells (NCI), 48 h
[1] = tested on: 786-0 renal
[2] = tested on: A498 renal
[3] = tested on: A549 NSCLC
[4] = tested on: ACHN renal
[5] = tested on: BT-549 breast
[6] = tested on: CAKI-1 renal
[7] = tested on: CCRF-CEM leukemia
[8] = tested on: COLO 205 colon
[9] = tested on: DU-145 prostate
[10] = tested on: EKVX NSCLC
[11] = tested on: HCC-2998 colon
[12] = tested on: HCT-116 colon
[13] = tested on: HCT-15 colon
[14] = tested on: HL-60(TB) leukemia
[15] = tested on: HOP-62 NSCLC
[16] = tested on: HOP-92 NSCLC
[17] = tested on: HS 578T breast
[18] = tested on: HT29 colon
[19] = tested on: IGROV1 ovarian
[20] = tested on: K-562 leukemia
[21] = tested on: KM12 colon
[22] = tested on: LOX IMVI melanoma
[23] = tested on: M14 melanoma
[24] = tested on: MALME-3M melanoma
[25] = tested on: MCF7 breast
[26] = tested on: MDA-MB-231 breast
[27] = tested on: MDA-MB-435
[28] = tested on: MOLT-4 leukemia
[29] = tested on: NCI-H226 lung
[30] = tested on: NCI-H23 lung
[31] = tested on: NCI-H460 lung
[32] = tested on: NCI-H522 lung
[33] = tested on: NCI/ADR-RES ovarian
[34] = tested on: OVCAR-3 ovarian
[35] = tested on: OVCAR-4 ovarian
[36] = tested on: OVCAR-5 ovarian
[37] = tested on: OVCAR-8 ovarian
[38] = tested on: PC-3 prostate
[39] = tested on: RPMI-8226 leukemia
[40] = tested on: RXF 393 renal
[41] = tested on: SF-268 CNS
[42] = tested on: SF-295 CNS
[43] = tested on: SF-539 CNS
[44] = tested on: SK-MEL-2 melanoma
[45] = tested on: SK-MEL-28 melanoma
[46] = tested on: SK-MEL-5 melanoma
[47] = tested on: SK-OV-3 ovarian
[48] = tested on: SN12C renal
[49] = tested on: SNB-19 CNS
[50] = tested on: SNB-75 CNS
[51] = tested on: SR leukemia
[52] = tested on: SW-620 colon
[53] = tested on: T-47D breast
[54] = tested on: TK-10 renal
[55] = tested on: U251 CNS
[56] = tested on: UACC-257 melanoma
[57] = tested on: UACC-62 melanoma
[58] = tested on: UO-31 renal
[59] = tested on: MDA-N

CC(C)=CCC/C(C)=C/CC/C(C)=C/CC/C=C(\C)CC/C=C(\C)CCC(=O)Nc1ccn(C2OC(CO)C(O)C2(F)F)c(=O)n1 (stereo not given)
GI50 [1]: < 0.0157 µM | TGI [1]: < 0.0341 µM | GI50 [2]: 0.0695 µM | TGI [2]: 18.5 µM | GI50 [3]: 0.344 µM | TGI [3]: 28.3 µM | GI50 [4]: 0.0266 µM | TGI [4]: 11.2 µM | TGI [5]: 0.472 µM | GI50 [6]: 0.042 µM | TGI [6]: 9.85 µM | GI50 [7]: 0.0639 µM | TGI [7]: 0.525 µM | GI50 [8]: 0.0982 µM | TGI [8]: 12.6 µM | GI50 [9]: 0.0455 µM | TGI [9]: 3.23 µM | GI50 [10]: 0.112 µM | TGI [10]: 17 µM | GI50 [11]: 0.9 µM | TGI [11]: 23 µM | GI50 [12]: 0.0314 µM | TGI [12]: 1.14 µM | GI50 [13]: 0.691 µM | TGI [13]: 28 µM | GI50 [14]: 0.0618 µM | TGI [14]: 0.539 µM | GI50 [15]: 0.0507 µM | TGI [15]: 2.38 µM | GI50 [16]: 0.435 µM | TGI [16]: 11.5 µM | GI50 [17]: 10.3 µM | TGI [17]: 35.2 µM | GI50 [18]: 0.594 µM | TGI [18]: 48.9 µM | GI50 [19]: 0.142 µM | TGI [19]: 11.1 µM | GI50 [20]: 0.989 µM | TGI [20]: 24.9 µM | GI50 [21]: 0.181 µM | TGI [21]: 18.1 µM | GI50 [22]: 0.347 µM | TGI [22]: 14.5 µM | GI50 [23]: 0.0519 µM | TGI [23]: 1.2 µM | GI50 [24]: 0.438 µM | TGI [24]: 6.71 µM | GI50 [25]: < 0.011 µM | TGI [25]: 4.34 µM | GI50 [26]: 12.8 µM | TGI [26]: 27.1 µM | GI50 [27]: 0.144 µM | TGI [27]: 7.58 µM | GI50 [28]: 0.0743 µM | TGI [28]: 1.5 µM | GI50 [29]: 2.5 µM | TGI [29]: 20.4 µM | GI50 [30]: 0.0324 µM | TGI [30]: 12.4 µM | GI50 [31]: 0.0444 µM | TGI [31]: 3.74 µM | GI50 [32]: 0.0854 µM | TGI [32]: 5.83 µM | GI50 [33]: 0.116 µM | TGI [33]: 16.6 µM | TGI [34]: 4.48 µM | GI50 [35]: 1.91 µM | TGI [35]: 8.67 µM | GI50 [36]: 1.21 µM | TGI [36]: 26.3 µM | GI50 [37]: 0.0652 µM | TGI [37]: > 100 µM | GI50 [38]: 1.19 µM | TGI [38]: 20.5 µM | GI50 [39]: 0.122 µM | TGI [39]: 2.49 µM | GI50 [40]: 1.09 µM | TGI [40]: 7.15 µM | GI50 [41]: 0.0853 µM | TGI [41]: 3.51 µM | GI50 [42]: 0.0329 µM | TGI [42]: 0.154 µM | GI50 [43]: 0.0268 µM | TGI [43]: 0.475 µM | GI50 [44]: 0.0183 µM | TGI [44]: 1.28 µM | GI50 [45]: 2.64 µM | TGI [45]: 21.9 µM | GI50 [46]: 0.168 µM | TGI [46]: 4.75 µM | GI50 [47]: 0.0644 µM | TGI [47]: 13.8 µM | GI50 [48]: 0.326 µM | TGI [48]: 13.1 µM | GI50 [49]: 0.0245 µM | TGI [49]: 11.7 µM | GI50 [50]: 3 µM | TGI [50]: 23.3 µM | GI50 [51]: 0.0391 µM | TGI [51]: 0.374 µM | GI50 [52]: 0.48 µM | TGI [52]: 21.4 µM | GI50 [53]: 0.089 µM | TGI [53]: 11.8 µM | GI50 [54]: 3.05 µM | TGI [54]: 18.8 µM | GI50 [55]: 0.0884 µM | TGI [55]: 16.1 µM | GI50 [56]: 0.252 µM | TGI [56]: 8.22 µM | GI50 [57]: 0.287 µM | TGI [57]: 15.2 µM | GI50 [58]: 0.0501 µM | TGI [58]: 14.7 µM

COc1cccc(NC(=O)C(C#N)=C(SC)SC)c1
TGI [1]: > 100 µM | TGI [2]: > 100 µM | TGI [3]: > 100 µM | TGI [4]: > 100 µM | TGI [5]: > 100 µM | TGI [6]: > 100 µM | TGI [7]: > 100 µM | TGI [8]: > 100 µM | TGI [10]: > 100 µM | TGI [11]: > 100 µM | TGI [12]: > 100 µM | TGI [13]: > 100 µM | TGI [15]: > 100 µM | TGI [16]: > 100 µM | TGI [17]: > 100 µM | TGI [18]: > 100 µM | TGI [19]: > 100 µM | TGI [20]: > 100 µM | TGI [21]: > 100 µM | TGI [22]: > 100 µM | TGI [23]: > 100 µM | TGI [24]: > 100 µM | TGI [25]: > 100 µM | TGI [26]: > 100 µM | TGI [27]: > 100 µM | TGI [59]: > 100 µM | TGI [28]: > 100 µM | TGI [29]: > 100 µM | TGI [31]: > 100 µM | TGI [32]: > 100 µM | TGI [33]: > 100 µM | TGI [35]: > 100 µM | TGI [36]: > 100 µM | TGI [37]: > 100 µM | TGI [38]: > 100 µM | TGI [40]: > 100 µM | TGI [41]: > 100 µM | TGI [42]: > 100 µM | TGI [43]: > 100 µM | TGI [44]: > 100 µM | TGI [45]: > 100 µM | TGI [46]: > 100 µM | TGI [47]: > 100 µM | TGI [48]: > 100 µM | TGI [49]: > 100 µM | TGI [50]: > 100 µM | TGI [52]: > 100 µM | TGI [54]: > 100 µM | TGI [55]: > 100 µM | TGI [56]: > 100 µM | TGI [57]: > 100 µM
